Tested on: NCI-H1876 complex spheroid growth, % test/control
Test: Anticancer human tumor NCI-H1876 cell line growth inhibition [Asc];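 also: compound exposure lasted 7 days starting three days after seeding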;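 as to viability, T/C: 100% = DMSO vehicle control wells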
Conditions: for IC50: curve of first compound; for viability, T/C: stronger effect = lower value; active = viability on the fitted dose curve at most 10% of control; inactive = the rest
How it was run: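 Complex solid-tumor spheroids incorporating human endothelial and mesenchymal stem cells received single agents or combinations over half-log dilution ranges anchored to clinical Cmax.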

O=C(c1cc(Cc2n[nH]c(=O)c3ccccc23)ccc1F)N1CCN(C(=O)C2CC2)CC1 + CCN1C(C(=O)NC23CCC(C(=O)O)(CC2)CC3)C(c2cccc(Cl)c2F)C2(C(=O)Nc3cc(Cl)ccc32)C12CCCCC2
> 10 µM: IC50 (second compound 0.00949 µM) | IC50 (second compound 0.03 µM) | IC50 (second compound 0.0949 µM) | IC50 (second compound 0.3 µM) | IC50 (second compound 0.949 µM) | IC50 (second compound 3 µM)
inactive: viability, T/C (second compound 0.00949 µM, first compound 0.0316 µM) 99.3% | viability, T/C (second compound 0.00949 µM, first compound 0.1 µM) 94.5% | viability, T/C (second compound 0.00949 µM, first compound 0.316 µM) 118% | viability, T/C (second compound 0.00949 µM, first compound 1 µM) 102% | viability, T/C (second compound 0.00949 µM, first compound 3.16 µM) 100% | viability, T/C (second compound 0.00949 µM, first compound 10 µM) 80.2% | viability, T/C (second compound 0.03 µM, first compound 0.0316 µM) 104% | viability, T/C (second compound 0.03 µM, first compound 0.1 µM) 100% | viability, T/C (second compound 0.03 µM, first compound 0.316 µM) 97.4% | viability, T/C (second compound 0.03 µM, first compound 1 µM) 108% | viability, T/C (second compound 0.03 µM, first compound 3.16 µM) 116% | viability, T/C (second compound 0.03 µM, first compound 10 µM) 82% | viability, T/C (second compound 0.0949 µM, first compound 0.0316 µM) 101% | viability, T/C (second compound 0.0949 µM, first compound 0.1 µM) 106% | viability, T/C (second compound 0.0949 µM, first compound 0.316 µM) 104% | viability, T/C (second compound 0.0949 µM, first compound 1 µM) 102% | viability, T/C (second compound 0.0949 µM, first compound 3.16 µM) 112% | viability, T/C (second compound 0.0949 µM, first compound 10 µM) 85.5% | viability, T/C (second compound 0.3 µM, first compound 0.0316 µM) 106% | viability, T/C (second compound 0.3 µM, first compound 0.1 µM) 116% | viability, T/C (second compound 0.3 µM, first compound 0.316 µM) 108% | viability, T/C (second compound 0.3 µM, first compound 1 µM) 102% | viability, T/C (second compound 0.3 µM, first compound 3.16 µM) 112% | viability, T/C (second compound 0.3 µM, first compound 10 µM) 97% | viability, T/C (second compound 0.949 µM, first compound 0.0316 µM) 122% | viability, T/C (second compound 0.949 µM, first compound 0.1 µM) 114% | viability, T/C (second compound 0.949 µM, first compound 0.316 µM) 110% | viability, T/C (second compound 0.949 µM, first compound 1 µM) 123% | viability, T/C (second compound 0.949 µM, first compound 3.16 µM) 117% | viability, T/C (second compound 0.949 µM, first compound 10 µM) 83.2% | viability, T/C (second compound 3 µM, first compound 0.0316 µM) 102% | viability, T/C (second compound 3 µM, first compound 0.1 µM) 108% | viability, T/C (second compound 3 µM, first compound 0.316 µM) 101% | viability, T/C (second compound 3 µM, first compound 1 µM) 106% | viability, T/C (second compound 3 µM, first compound 3.16 µM) 98% | viability, T/C (second compound 3 µM, first compound 10 µM) 76.9%

Reference: PubChem BioAssay AID1963441 (Molecular Pharmacology Branch, DTP, NCI, 2024)
